In data set [1] the target is T1, L(−)-carnitine dehydratase (Escherichia coli, UniProt P31572).
T1 construct: partly concentrated L(−)-carnitine dehydratase (without factor F showing any activity)
The experiment in a line: L(−)-carnitine dehydratase activation test (formation of L(−)-carnitine from crotonobetaine). It counts as biochemical. The settings on record: 0.002 μmol cofactor, 10 min at 37° C. The method, then:
For the L(−)-carnitine dehydratase activation test according to the invention purified gamma-butyrobetainyl-coenzyme A is supplied (preferably 1-10 nmol) on potassium phosphate buffer (10 mM pH 7.5), which is added with partly concentrated L(−)-carnitine dehydratase (without factor F showing any activity) and the crotonobetaine solution to be metabolized (1M) and incubated at 37° C.
(§1) The L(−)-carnitine formed was subsequently tested with an optical test with the aid of carnitine acetyltransferase (according to BERGMEYER (1970)). A similar procedure was adopted in the racemization reaction test, in which a solution of D(+)-carnitine (1M) was added in the place of crotonobetaine. The L(−)-carnitine formed can be determined exactly by prior testing of the system with known solutions of L(−)-carnitine.
For the L(−)-carnitine dehydratase activation test according to the invention purified crotonobetainyl-coenzyme A is supplied (preferably 1-10 nmol) on potassium phosphate buffer (10 mM pH 7.5), which is added with partly concentrated L(−)-carnitine dehydratase (without factor F showing any activity) and the crotonobetaine solution to be metabolized (1M) and incubated at 37° C.
Formation of L(−)-carnitine from crotonobetaine by means of concentrated L(−)-carnitine dehydratase and gamma-butyrobetainyl-coenzyme A (BB-CoA) after 10 minutes' incubation at 37° C. on potassium phosphate buffer (10 mM, pH 7.5).
Formation of L(−)-carnitine from crotonobetaine by means of concentrated L(−)-carnitine dehydratase and crotonobetainyl-coenzyme A (CB-CoA) after 10 minutes' incubation at 37° C. on potassium phosphate buffer (10 mM, pH 7.5).

Data set [2] can be described thus: Temperature stability (1 h). It counts as physicochemical. The procedure: (§2) The gamma-butyrobetainyl chloride thus obtained is suitable for the synthesis of gamma-butyrobetainyl-coenzyme A. Coenzyme A is first suspended in an iced mixture of 1M of sodium bicarbonate at pH 7.5-9.5 (preferably pH 8.5). To this is added a definite amount of gamma-butyrobetainyl chloride (preferably in excess) keeping the pH values under control. After 15-30 minutes the reaction is complete. The formation of gamma-butyrobetainyl-coenzyme A is checked by HPLC (Spherisorb, C18 column) and finally subjected to a further purification stage (ion-exchange chromatography on DOWEX 50). The purity is checked again by HPLC (Spherisorb, C18 column). The physicochemical properties were determined on the washed product (see following table).
as §2, with “crotonobetainyl” for “gamma-butyrobetainyl”, “crotonobetainyl-coenzyme” for “gamma-butyrobetainyl-coenzyme”

A further data set can be described thus: Solubility. It counts as physicochemical. To be noted: solvent in which soluble. The procedure:
as §2
as §2, with “crotonobetainyl” for “gamma-butyrobetainyl”, “crotonobetainyl-coenzyme” for “gamma-butyrobetainyl-coenzyme”, “The purity is checked again by HPLC (Spherisorb, C18 column).” left out

Data set [3] relates to system of racemization of carnitine. Kind of data set: Racemization reaction test (formation of L(−)-carnitine from D(+)-carnitine). To be noted: 0.002 μmol cofactor, 10 min at 37° C. It is filed as biochemical. The method, then: as §1
Formation of L(−)-carnitine from D(+)-carnitine by means of a system of racemization of carnitine and gamma-butyrobetainyl-coenzyme A (BB-CoA) after 10 minutes' incubation at 37° C. on potassium phosphate buffer (10 mM, pH 7.5).
Formation of L(−)-carnitine from D(+)-carnitine via a system of racemization of carnitine and crotonobetainyl-coenzyme A (CB-CoA) after 10 minutes' incubation at 37° C. on potassium phosphate buffer (10 mM, pH 7.5).

Another data set in a line: pH stability for 1 h. It counts as physicochemical. The settings on record: pH range. The method, then: as §2
as §2, with “crotonobetainyl” for “gamma-butyrobetainyl”, “crotonobetainyl-coenzyme” for “gamma-butyrobetainyl-coenzyme”, “The purity is checked again by HPLC (Spherisorb, C18 column).” left out

[4] abbreviates: 0 μg L-carnitine dehydratase (no enzyme), 20 μmol crotonobetaine, pH 7.5.
Setting [5] is: 10 μg L-carnitine dehydratase, 0 μmol crotonobetaine (no substrate), pH 7.5.
The mark [6] stands for this setting: 10 μg L-carnitine dehydratase, 20 μmol crotonobetaine, potassium phosphate buffer 10 mM pH 7.5.
The mark [7] stands for this setting: 0 μg carnitine racemization system, 20 μmol substrate, pH 7.5.
[8] abbreviates: 30 μg carnitine racemization system, 0 μmol substrate, pH 7.5.
[9] abbreviates: 30 μg carnitine racemization system, 20 μmol substrate (head: Crotonobetaine, text: D(+)-carnitine), potassium phosphate buffer 10 mM pH 7.5.

T1 sequence (P31572 whole entry): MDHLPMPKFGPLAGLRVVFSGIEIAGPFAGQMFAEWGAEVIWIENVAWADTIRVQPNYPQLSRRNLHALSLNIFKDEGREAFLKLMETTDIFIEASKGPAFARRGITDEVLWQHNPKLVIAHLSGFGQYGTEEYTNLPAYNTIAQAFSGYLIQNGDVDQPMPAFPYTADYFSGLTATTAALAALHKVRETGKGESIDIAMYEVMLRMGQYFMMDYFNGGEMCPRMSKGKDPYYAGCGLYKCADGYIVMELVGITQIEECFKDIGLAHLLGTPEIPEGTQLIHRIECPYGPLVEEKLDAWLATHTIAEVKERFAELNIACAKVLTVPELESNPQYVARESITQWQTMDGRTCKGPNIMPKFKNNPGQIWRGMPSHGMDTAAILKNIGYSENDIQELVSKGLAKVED

As to `CC(C)(COP(=O)(O)OP(=O)(O)OC[C@H]1O[C@@H](n2cnc3c(N)ncnc32)[C@H](O)[C@@H]1OP(=O)(O)O)[C@@H](O)C(=O)NCCC(=O)NCCSC(=O)CCC[N+](C)(C)C` [BB-CoA, gamma-butyrobetainyl-coenzyme A], the Carnitine synthesis in data set [1] (setting [4]) turned out to be 0 µmol; in data set [1] (setting [5]) it was 0 µmol; in data set [1] (setting [6]) it was 0.18 µmol; in data set [3] (setting [7]), 0 µmol; in data set [3] (setting [8]), 0 µmol; in data set [3] (setting [9]), 0.162 µmol. Besides, the “Temperature stability (1 h)” value in data set [2] (0° C. to 90° C.) is >90%: 0 °C to 90 °C; in data set [2] (−20° C.), 100%: −20 °C. For the same molecule, the Solubility entry in the data set “Solubility” is “water”. Also, the “pH stability for 1 h” value in the data set “pH stability for 1 h” is reported as 3-10.

In the case of `CC(C)(COP(=O)(O)OP(=O)(O)OC[C@H]1O[C@@H](n2cnc3c(N)ncnc32)[C@H](O)[C@@H]1OP(=O)(O)O)[C@@H](O)C(=O)NCCC(=O)NCCSC(=O)/C=C/C[N+](C)(C)C` [CB-CoA, crotonobetainyl-coenzyme A], the Carnitine synthesis in data set [1] (setting [4]) is 0 µmol; in data set [1] (setting [5]) it was 0 µmol; in data set [1] (setting [6]), 0.271 µmol; in data set [3] (setting [7]), 0 µmol; in data set [3] (setting [8]), 0 µmol; in data set [3] (setting [9]), 0.243 µmol. For the same molecule, the entries for the “Temperature stability (1 h)” value in data set [2] (20° C. to 60° C.) and in data set [2] (−20° C. to 0° C.) were 75%: 20 °C to 60 °C and 100%: −20 °C to 0 °C, respectively. Also, the Solubility entry in “Solubility” is on record as “water”. Moreover, in “pH stability for 1 h”, the “pH stability for 1 h” value is given as 2-10.

For the origin of these results see US20020146787A1, “Coenzymes useful for the synthesis of L-carnitine” (Sigma-Tau Industrie Farmaceutiche Riunite S.p.A, priority 1998, published 2002).
